Assay results published in article PMC4352194, “Physicochemical and Biological Properties of Oxovanadium(IV), Cobalt(II) and Nickel(II) Complexes with Oxydiacetate Anions” (Biological Trace Element Research, 2014).

Experiments:
[1] = Potentiometric titration: dissociation constants of oxydiacetic acid in DMSO-water; type: physicochemical; conditions: 298.15 K
Procedure: (§1) Potentiometric titrations were performed in a 30-mL thermostated (298.15 ± 0.10 K) cell using the Cerko Lab System microtitration unit fitted with a 5-mL Hamilton’s syringe, a pH combined electrode (Schott–BlueLine 16 pH type) and a self-made measuring cell equipped with a magnetic stirrer. The temperature was controlled using the Lauda E100 circulation thermostat. In aqueous solutions, the electrode was calibrated according to IUPAC recommendations. In binary systems (10–50 % v/v DMSO:H2O), the electrode calibration was performed by the Gran’s method using the GLEE program. For this purpose, the HClO4 solution was titrated with tetrabutylammonium hydroxide (Bu4NOH) solution both at the same mole fraction of organic solvent (10–50 (v/v%) DMSO). The syringe was calibrated by a weight method. The double distilled water of conductivity approximately 0.18 μS/cm was used throughout for the preparation of aqueous solutions. Other reagents used in the experiments were purchased from Sigma-Aldrich. They were as follows: VOSO4 (≥99.99 % trace metals basis), Co(NO3)2·6H2O (ACS reagent, ≥99 %), Ni(NO3)2·6H2O (99.999 %) and 2,2′-oxydiacetic acid (H2ODA, 98 %). All the solutions were prepared immediately before measurements. The compositions of the titrand solutions used in the experiments were as follows: (a) 2 mM Ni^2+ (Co^2+ or VO^2+), 5 mM H2ODA, 5 mM HClO4, (b) 2.5 mM H2ODA (for binary systems). The solutions (Vo = 5.0 mL) were potentiometrically titrated with the standardized 0.098 M NaOH solution or with the standardized 0.025 M Bu4NOH solution (in binary systems) in the pH range from 2.5 to 11.0. The titrant was added to the titrand in increments of 0.01 mL, with a pause of 60 s. Each titration was repeated at least three times in order to check the reproducibility of the data. The stability constants of the complexes were determined using the Hyperquad2008 program. The concentration distribution of various complex species existing in the solution as a function of pH was obtained using the HySS program.
To assess the influence of DMSO as a co-solvent on the stability of the complexes, its effect on the dissociation constants of H2ODA was investigated potentiometrically in the first instance. The representative pH-titration curves for oxydiacetic acid at 298.15 K in 0, 30 and 50 % (v/v) DMSO-water binary systems are shown in Fig. 2, whereas the calculated dissociation constants are collected in Table 3. In the calculations, the ionization constants of the solvents, pK s, were taken from the literature.

[2] = Potentiometric titration: stability constants of the complexes; type: physicochemical; conditions: PT, 298.15 K, aqueous
Procedure: as §1
The equilibrium constants defined by Eqs. (1) and (2):1 pM+qL+rH=MpLqHr 2 βpqr=MpLqHr/M^pL^qH^r (where M is VO^2+, Co^2+ or Ni^2+, L denotes the oxydiacetate ion, H is the proton and p, q, r are stoichiometric coefficients for the reaction) were refined by least-squares calculations using the Hyperquad2008 (version 5.2.19) computer program. For the oxovanadium(IV) system, the formation of the hydroxo complexes of VO(IV) were taken into account in the calculations of the stability constants. The following formation constants were taken from the literature and were fixed: logβ 10–1 = −5.94, logβ 20–2 = −6.95 and logβ 10–3 = −18. The equilibrium models presented in Table 2 have given the best fitting of the calculated data to the experimental ones.

[3] = set-up: method as in doi:10.1016/j.molstruc.2011.03.036, PMID 23047227; conditions: cited from earlier work
Escherichia coli = experiment: Disc diffusion test; type: cell-based; conditions: E. coli, 100 μg/disc
Procedure: (§2) The antimicrobial activity of complex compounds was assessed against Bacillus subtilis, Escherichia coli, Enterococcus faecalis, Pseudomonas aeruginosa, Staphylococcus aureus, Staphylococcus epidermidis (all strains were from the collection of the Department of Molecular Biology, University of Gdańsk). All bacteria were cultured in the Luria-Bertani (LB) broth at 310.15 K in the air with shaking. LB agar plates were prepared by the supplementation of LB broth with the 1.5 % bacteriological agar. Stock solutions of complex compounds were freshly prepared in the LB broth at the concentration of 25 mg/mL. Aliquots of 0.05 mL of bacterial culture at the optical density at 600 nm of 0.1 (inoculum 5 × 10^6 cells per plate) were spread on LB agar plates. Sterile filter paper discs (of 6 mm diameter) were impregnated with solutions of complex compounds prepared in the deionized water at the following amounts: 0.1, 0.2, 0.5 and 1.0 mg per disc and placed on agar plates. After an overnight incubation at 310.15 K, zones of bacterial growth inhibition were measured. Neomycin at the amount of 0.1 mg/disc was used as a control.

[4] = tested on: Staphylococcus epidermidis; experiment: Disc diffusion test; type: cell-based; conditions: S. epidermidis, 100 μg/disc
Procedure: as §2

Pseudomonas aeruginosa = experiment: Disc diffusion test; type: cell-based; conditions: P. aeruginosa, 100 μg/disc
Procedure: as §2

Enterococcus faecalis = experiment: Disc diffusion test; type: cell-based; conditions: E. faecalis, 100 μg/disc
Procedure: as §2

Staphylococcus aureus = experiment: Disc diffusion test; type: cell-based; conditions: S. aureus, 100 μg/disc
Procedure: as §2

Bacillus subtilis = experiment: Disc diffusion test; type: cell-based; conditions: B. subtilis, 100 μg/disc
Procedure: as §2

[5] = set-up: method as in earlier work; conditions: fixed in the calculations; cited from earlier work

## O=C(O)COCC(=O)O [H2ODA, 2,2′-oxydiacetic acid]
[1]; DMSO 0 % v/v
  pK a1 (H2ODA = HODA^− + H^+): 2.90 (±0.05)
  pK a2 (HODA^− = ODA^2− + H^+): 4.28 (±0.08)
[1]; DMSO 10 % v/v
  pK a1 (H2ODA = HODA^− + H^+): 3.11 (±0.04)
  pK a2 (HODA^− = ODA^2− + H^+): 4.52 (±0.02)
[1]; DMSO 20 % v/v
  pK a1 (H2ODA = HODA^− + H^+): 3.28 (±0.02)
  pK a2 (HODA^− = ODA^2− + H^+): 4.69 (±0.02)
[1]; DMSO 30 % v/v
  pK a1 (H2ODA = HODA^− + H^+): 3.42 (±0.04)
  pK a2 (HODA^− = ODA^2− + H^+): 4.91 (±0.02)
[1]; DMSO 40 % v/v
  pK a1 (H2ODA = HODA^− + H^+): 3.61 (±0.03)
  pK a2 (HODA^− = ODA^2− + H^+): 5.16 (±0.02)
[1]; DMSO 50 % v/v
  pK a1 (H2ODA = HODA^− + H^+): 3.76 (±0.03)
  pK a2 (HODA^− = ODA^2− + H^+): 5.46 (±0.03)
[2]; fitted in the M = Co^2+ system
  logβ 011 (LH): 4.16 (±0.09)
  logβ 012 (LH2): 7.26 (±0.06)
[2]; fitted in the M = Ni^2+ system
  logβ 011 (LH): 4.12 (±0.01)
  logβ 012 (LH2): 6.97 (±0.01)
[2]; fitted in the M = VO^2+ system
  logβ 011 (LH): 4.20 (±0.05)
  logβ 012 (LH2): 7.25 (±0.05)

## Cc1ccncc1.O.O.O.O=C([O-])COCC(=O)[O-].[Cu+2] [[Cu(ODA)(4-pic)(H2O)]∙2H2O]
[3]
  SOD activity: considerable SOD activity

## O.O.O.O.O.O=C([O-])COCC(=O)[O-].[Cu+2].c1ccc(-c2ccccn2)nc1 [[Cu(ODA)(bipy)(H2O)]∙4H2O]
[3]
  SOD activity: considerable SOD activity

## NC[C@@H]1O[C@H](O[C@H]2[C@@H](O)[C@H](O[C@@H]3[C@@H](O)[C@H](N)C[C@H](N)[C@H]3O[C@H]3O[C@H](CN)[C@@H](O)[C@H](O)[C@H]3N)O[C@@H]2CO)[C@H](N)[C@@H](O)[C@@H]1O [Neo, Neomycin, reference compound]
Escherichia coli
  Zone of growth inhibition: 15 mm
[4]
  Zone of growth inhibition: 25 mm
Pseudomonas aeruginosa
  Zone of growth inhibition: 17 mm
Enterococcus faecalis
  Zone of growth inhibition: 16 mm
Staphylococcus aureus
  Zone of growth inhibition: 18 mm
Bacillus subtilis
  Zone of growth inhibition: 21 mm

## [O]=[V+2] [VO(IV)]
[5]
  logβ 10–1 (hydroxo complex formation constant): −5.94
  logβ 10–3 (hydroxo complex formation constant): −18
  logβ 20–2 (hydroxo complex formation constant): −6.95
